The target in assay [1] is T1, human cloned 5-HT2C receptor (Homo sapiens, UniProt P28335).
T1 construct: expressed in transfected cells; host or cells: CHO cells
T1 sequence (P28335 33-458): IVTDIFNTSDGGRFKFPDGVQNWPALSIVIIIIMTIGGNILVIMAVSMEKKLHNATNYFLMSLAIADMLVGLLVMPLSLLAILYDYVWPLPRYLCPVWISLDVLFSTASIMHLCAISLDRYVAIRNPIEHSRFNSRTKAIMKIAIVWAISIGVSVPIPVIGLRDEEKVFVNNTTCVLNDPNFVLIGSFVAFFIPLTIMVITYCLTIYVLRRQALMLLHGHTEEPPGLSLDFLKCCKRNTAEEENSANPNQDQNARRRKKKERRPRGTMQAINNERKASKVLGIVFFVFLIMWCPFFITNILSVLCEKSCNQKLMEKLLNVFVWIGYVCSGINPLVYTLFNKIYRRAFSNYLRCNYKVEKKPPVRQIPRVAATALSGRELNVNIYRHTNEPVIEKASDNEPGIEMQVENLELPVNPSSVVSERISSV
The assay is described as follows: In vitro binding affinity for 5-HT2C receptor (radioligand binding). To be noted: human cloned 5-HT2C receptor expressed in CHO cells, [3H]mesulergine radioligand; read-out: 5-HT2C (pIC50) (converted). As for the experimental part: (§1) The interaction of the compounds of Formula (I) with 5-HT2A and 5-HT2C receptors was assessed in in vitro radioligand binding experiments. In general, a low concentration of a radioligand with a high binding affinity for the receptor is incubated with a sample of a tissue preparation enriched in a particular receptor (1 to 5 mg tissue) in a buffered medium (0.2 to 5 ml). During the incubation, the radioligands bind to the receptor. When equilibrium of binding is reached, the receptor bound radioactivity is separated from the non-bound radioactivity, and the receptor bound activity is counted. The interaction of the test compounds with the receptors is assessed in competition binding experiments. Various concentrations of the test compound are added to the incubation mixture containing the tissue preparation and the radioligand. Binding of the radioligand will be inhibited by the test compound in proportion to its binding affinity and its concentration. The affinities of the compounds for the 5-HT2 receptors were measured by means of radioligand binding studies conducted with: (a) human cloned 5-HT2A receptor, expressed in L929 cells using [^125I]R91150 as radioligand and (b) human cloned 5-HT2C receptor, expressed in CHO cells using [^3H]mesulergine as radioligand.

Assay [2] deals with T2, norepinephrine transporter (NET) (Rattus norvegicus, UniProt Q63380).
T2 construct: Cortex from rat brain was collected and homogenised; from tissue; host or cells: rat brain cortex membranes
T2 sequence (Q63380 1-617): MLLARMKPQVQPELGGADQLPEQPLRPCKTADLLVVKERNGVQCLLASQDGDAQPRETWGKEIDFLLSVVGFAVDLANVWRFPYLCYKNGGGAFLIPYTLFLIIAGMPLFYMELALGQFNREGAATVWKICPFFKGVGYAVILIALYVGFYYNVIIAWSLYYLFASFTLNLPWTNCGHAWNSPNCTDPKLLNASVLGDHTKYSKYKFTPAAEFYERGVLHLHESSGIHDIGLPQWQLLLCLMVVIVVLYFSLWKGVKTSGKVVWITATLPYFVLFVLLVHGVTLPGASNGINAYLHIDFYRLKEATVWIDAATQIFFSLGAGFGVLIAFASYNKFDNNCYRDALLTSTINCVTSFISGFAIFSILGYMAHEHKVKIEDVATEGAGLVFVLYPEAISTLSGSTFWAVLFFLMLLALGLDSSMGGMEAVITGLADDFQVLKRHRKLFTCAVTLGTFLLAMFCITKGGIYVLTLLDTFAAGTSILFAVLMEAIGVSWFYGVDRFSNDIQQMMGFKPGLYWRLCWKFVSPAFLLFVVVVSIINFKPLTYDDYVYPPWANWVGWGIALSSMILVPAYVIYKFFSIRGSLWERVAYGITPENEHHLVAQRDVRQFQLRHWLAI
The assay is described as follows: In vitro assay for NET inhibition (radioligand binding, rat brain cortex). The settings on record: rat brain cortex membranes, [3H]Nixosetine radioligand; for IC50: read-out: NET-inhibition (pIC50) (converted). As for the experimental part: Cortex from rat brain was collected and homogenised using an Ultra-Turrax T25 and a Dual homogeniser in ice-cold homogenising buffer containing Tris, NaCl and KCl (50 mM, 120 mM and 5 mM, respectively, pH 7.4) prior to dilution to an appropriate protein concentration optimised for specific and non-specific binding. […] Membrane-bound activity was detected by filtration through a Packard Filtermate harvester onto GF/B Unifilterplates, washed with ice-cold Tris-HCl buffer, containing NaCl and KCl (50 mM, 120 mM and 4 mM; pH 7.4; 6×0.5 ml). Filters were allowed to dry for 24 h before adding scintillation fluid. Scintillation fluid was allowed to saturate filters for 24 h before counting in a Topcount scintillation counter. Percentage specific bound and competition binding curves were calculated using S-Plus software (Insightful).

The target of assay [3] is T3, human dopamine D2L receptor (Homo sapiens, UniProt P14416).
T3 construct: expressed in transfected cells; host or cells: CHO cells (frozen membranes)
T3 sequence (P14416 whole entry): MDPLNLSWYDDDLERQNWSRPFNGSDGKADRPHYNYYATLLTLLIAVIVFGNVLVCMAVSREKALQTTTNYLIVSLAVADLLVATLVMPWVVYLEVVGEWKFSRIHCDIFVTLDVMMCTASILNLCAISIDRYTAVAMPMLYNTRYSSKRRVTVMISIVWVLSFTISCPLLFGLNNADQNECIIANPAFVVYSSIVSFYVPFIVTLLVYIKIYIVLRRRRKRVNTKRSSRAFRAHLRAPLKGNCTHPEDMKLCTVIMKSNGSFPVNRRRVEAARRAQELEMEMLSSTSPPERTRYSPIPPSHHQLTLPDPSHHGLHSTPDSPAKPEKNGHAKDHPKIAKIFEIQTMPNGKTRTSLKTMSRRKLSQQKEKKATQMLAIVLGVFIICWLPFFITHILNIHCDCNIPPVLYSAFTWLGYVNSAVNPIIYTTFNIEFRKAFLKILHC
The assay is described as follows: In vitro assay for D2 receptor binding. To be noted: for IC50 / D2 (pIC50): membranes of human D2L-transfected CHO cells, [3H]Spiperone radioligand; for IC50: read-out: D2 (pIC50) (converted); for D2/NET: ratio of D2 pIC50 to NET-inhibition pIC50. As for the experimental part: Frozen membranes of human dopamine D2L receptor-transfected CHO cells were thawed, briefly homogenised using an Ultra-Turrax T25 homogeniser and diluted in Tris-HCl assay buffer containing NaCl, CaCl2, MgCl2, KCl (50, 120, 2, 1, and 5 mM respectively, adjusted to pH 7.7 with HCl) to an appropriate protein concentration optimised for specific and non-specific binding. Radioligand [^3H]Spiperone (NEN, specific activity ˜70 Ci/mmol) was diluted in assay buffer at a concentration of 2 nmol/L. Prepared radioligand (50 μl), along with 50 μl of either the 10% DMSO control, Butaclamol (10^−6 mol/l final concentration), or compound of interest, was then incubated (30 min, 37° C.) with 400 μl of the prepared membrane solution. Membrane-bound activity was filtered through a Packard Filtermate harvester onto GF/B Unifilterplates and washed with ice-cold Tris-HCl buffer (50 mM; pH 7.7; 6×0.5 ml). Filters were allowed to dry before adding scintillation fluid and counting in a Topcount scintillation counter. Percentage specific bound and competition binding curves were calculated using S-Plus software (Insightful).

The target of assay [4] is T4, human cloned 5-HT2A receptor (Homo sapiens, UniProt P28223).
T4 construct: expressed in transfected cells; host or cells: L929 cells
T4 sequence (P28223 whole entry): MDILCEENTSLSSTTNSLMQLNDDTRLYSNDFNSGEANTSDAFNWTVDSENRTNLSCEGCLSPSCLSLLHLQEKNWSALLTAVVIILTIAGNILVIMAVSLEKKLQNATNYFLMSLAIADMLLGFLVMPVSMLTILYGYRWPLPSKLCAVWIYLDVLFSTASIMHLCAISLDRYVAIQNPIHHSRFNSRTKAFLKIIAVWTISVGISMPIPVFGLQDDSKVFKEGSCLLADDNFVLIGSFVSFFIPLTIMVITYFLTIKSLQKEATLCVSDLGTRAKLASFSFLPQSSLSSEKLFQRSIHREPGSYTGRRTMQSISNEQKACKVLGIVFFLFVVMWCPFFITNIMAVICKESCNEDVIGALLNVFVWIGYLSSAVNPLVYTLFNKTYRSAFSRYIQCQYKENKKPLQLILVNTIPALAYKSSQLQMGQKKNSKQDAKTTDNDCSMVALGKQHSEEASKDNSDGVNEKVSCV
The assay is described as follows: In vitro binding affinity for 5-HT2A receptor (radioligand binding). The settings on record: human cloned 5-HT2A receptor expressed in L929 cells, [125I]R91150 radioligand; read-out: 5-HT2A (pIC50) (converted). As for the experimental part:
as §1

Bounds are passed on as bounds.

With `CNC[C@@H]1C[C@H]2c3ccccc3C(C)c3ccc(F)cc3[C@@H]2O1` (mixture of isomers) [Compound 99], the results for the IC50 in assay [1], in assay [2] and in assay [3] were 200 nM, 63.1 nM and greater than 10000 nM, respectively. For the same compound, the D2/NET in assay [3] is less than 0.69.
In the same order, the values of `CNC[C@H]1C[C@H]2c3cc(F)ccc3C(C)c3ccccc3[C@@H]2O1` (mixture of isomers) [Compound 102] are 50.1 nM, 31.6 nM, 7940 nM and 0.68.
On to `CCNC[C@H]1C[C@@H]2c3ccccc3[C@@H](O)c3ccc(F)cc3[C@H]2O1` (relative stereo) [Compound 106], for which the IC50 was 20 nM in assay [4], 5.01 nM in assay [1], 3.98 nM in assay [2] and 1260 nM in assay [3]. The D2/NET in assay [3] is listed as 0.67.
The matching figures for `C=C1c2ccccc2C2CC(CN(C)C)OC2c2ccccc21` (single isomer, unassigned) [Compound 24]: 158 nM, 25.1 nM, 20 nM, greater than 10000 nM and less than 0.65.
In the same order, the values of `CNCC1CC2c3ccccc3C(C)c3ccc(F)cc3C2O1` (single isomer, unassigned) [Compound 73] are 2 nM, 2 nM, 39.8 nM, 63.1 nM and 0.96.
As to `C=C1c2ccc(F)cc2C2CC(CNC)OC2c2ccccc21` (single isomer, unassigned) [Compound 93], the IC50 was 3.98 nM in assay [1] and 6.31 nM in assay [2]. The D2/NET in assay [3] came to 0.73.
Take `C=C1c2ccc(F)cc2C2CC(CNC)OC2c2ccccc21` (single isomer, unassigned) [Compound 94]: in assay [1], the IC50 is 20 nM. The “NET-inhibition (pIC50)” value in assay [2] is on record as 8.2. In assay [3], the IC50 was 5010 nM and the D2/NET is 0.65.
For the compound `CNCC1CC2c3ccccc3C(C)c3ccc(F)cc3C2O1` (single isomer, unassigned) [Compound 100], the IC50 in assay [1] was 158 nM; in assay [2], 7.94 nM; in assay [3] it was greater than 10000 nM. In assay [3], the D2/NET is recorded as less than 0.62.
In the case of `CNCC1CC2c3cc(F)ccc3C(C)(O)c3ccccc3C2O1` (single isomer, unassigned) [Compound 114], the IC50 in assay [1] was 1000 nM. Moreover, in assay [2], the IC50 is 631 nM. In assay [3], the “D2 (pIC50)” value was less than 5 and the D2/NET is less than 0.83.
`CNCC1CC2c3cc(F)ccc3C(C)(O)c3ccccc3C2O1` (single isomer, unassigned) [Compound 115]: the IC50 in assay [1] is 1580 nM; in assay [2] it was 1260 nM; in assay [3], greater than 10000 nM. For the same compound, the D2/NET in assay [3] is given as less than 0.85.
The matching figures for `CCNCC1CC2c3ccccc3C(C)(O)c3ccc(F)cc3C2O1` (single isomer, unassigned) [Compound 118]: 100 nM, 631 nM, 2000 nM and 0.91.
In the case of `CCNCC1CC2c3ccccc3C(C)(O)c3ccc(F)cc3C2O1` (single isomer, unassigned) [Compound 119], the IC50 is 20 nM in assay [1] and 31.6 nM in assay [2]. For the same compound, in assay [3], the D2/NET amounted to 0.67.
As for `CNCC1CC2c3ccccc3C(C)(O)c3ccc(F)cc3C2O1` (single isomer, unassigned) [Compound 124], the IC50 in assay [1] is 6310 nM. Besides, in assay [2], the IC50 was 316 nM. Besides, in assay [3], the “D2 (pIC50)” value is recorded as less than 5 and the D2/NET was less than 0.77.
As for `CNCC1CC2c3ccccc3C(C)(O)c3ccc(F)cc3C2O1` (single isomer, unassigned) [Compound 125], the results for the IC50 in assay [1], in assay [2] and in assay [3] were 6310 nM, 2000 nM and greater than 10000 nM, respectively. Also, in assay [3], the D2/NET is listed as less than 0.88.
Consider `CNCC1CC2c3ccccc3C(C)(O)c3ccc(F)cc3C2O1` (single isomer, unassigned) [Compound 126], for which the IC50 in assay [1] is 501 nM; in assay [2], 63.1 nM. In addition, the “D2 (pIC50)” value in assay [3] is listed as less than 5. Besides, the D2/NET in assay [3] was less than 0.69.
In the case of `CN(C)C[C@H]1C[C@@H]2c3ccccc3C(=O)c3ccc(F)cc3[C@H]2O1` [Compound 12], the IC50 is 63.1 nM in assay [4], 79.4 nM in assay [1], 63.1 nM in assay [2] and greater than 1000 nM in assay [3]. Also, in assay [3], the D2/NET is given as less than 0.83.
Take `COc1ccc2c(c1)[C@H]1O[C@@H](CN(C)C)C[C@@H]1c1ccccc1C2=O` [Compound 16]: the figures for the IC50 in assay [1] and in assay [2] were 50.1 nM and 501 nM, respectively. The D2/NET in assay [3] was found to be 0.95.
For `C=C1c2ccc(F)cc2C2CC(CN(C)C)OC2c2cc(F)ccc21` (centres unmarked) [Compound 29], the IC50 in assay [1] was 12.6 nM; in assay [2], 5.01 nM; in assay [3] it was greater than 1000 nM. The D2/NET in assay [3] is given as less than 0.72.
The matching figures for `COC1c2ccccc2[C@H]2C[C@H](CN(C)C)O[C@@H]2c2cc(F)ccc21` (some centres unmarked) [Compound 60]: 39.8 nM, 126 nM, 3980 nM and 0.79.
In the same order, the values of `CC1c2ccc(F)cc2C2CC(CN(C)C)OC2c2cc(F)ccc21` (centres unmarked) [Compound 77] are 50.1 nM, 31.6 nM, greater than 1000 nM and less than 0.80.
The matching figures for `C[C@@H]1c2ccccc2[C@H]2C[C@H](CN(C)C)O[C@@H]2c2cc(N(C)C)ccc21` [Compound 78]: 100 nM, 398 nM, 2000 nM and 0.88.
`C=C1c2ccccc2[C@@H]2C[C@@H](CNC)O[C@H]2c2cc(F)ccc21` [Compound 95]: the IC50 in assay [1] is 50.1 nM; in assay [2], 15.8 nM; in assay [3], 6310 nM. Besides, in assay [3], the D2/NET was 0.67.
In the same order, the values of `CNC[C@H]1C[C@@H]2c3cc(F)ccc3[C@@H](C)c3ccccc3[C@H]2O1` [Compound 101] are 20 nM, 15.8 nM, 3980 nM and 0.69.
In the same order, the values of `OC1c2ccccc2C2CC(CNCc3ccccc3)OC2c2cc(F)ccc21` (centres unmarked) [Compound 109] are 12.6 nM, 3980 nM, greater than 10000 nM and less than 0.92.
In the same order, the values of `COC1c2ccccc2C2CC(CNCc3ccccc3)OC2c2cc(F)ccc21` (centres unmarked) [Compound 111] are 79.4 nM, 2000 nM, 3160 nM and 0.96.

The values above are taken from US20070197525A1, “Novel tetracyclic tetrahydrofuran derivatives” (priority 2004, published 2007).
